Results reported in patent publication US7655392B2, “Quenching methods for red blood cell inactivation process” (priority 2004, dated 2010).

Test: Co-formulation of PIC-1 with neutralized glutathione in one solution (observation)
Format: physicochemical
Conditions: PIC-1 and 20 mM glutathione neutralized with NaOH in one solution (Table 2A samples 4-6)
Text: The methods of the invention result in adequate inactivation of possible pathogen contaminants in red blood cell compositions with improved quenching as compared to known methods. […] In some embodiments, the quencher is acidic and is neutralized with 1 to 2 equivalents of a suitable base, such as sodium hydroxide. In a preferred embodiment, the quencher is glutathione neutralized with 2 equivalents of base. In a preferred embodiment, the pathogen inactivating compound comprises an acridine group linked to a mustard group via an ester bond. […] The quencher may be added to the red blood cell composition before, after, or simultaneously with the pathogen inactivating compound. In some embodiments, the quencher is added in the time range of about 30 minutes prior to pathogen inactivating compound up to about 10 minutes following pathogen inactivating compound. In some embodiments, the quencher and pathogen inactivating compound may be added essentially simultaneously but separately. […] Because of the high concentration of glutathione required for adequate quenching, the pathogen inactivating compound precipitates when these are in the same solution in high concentrations. Once added to the red blood cell composition, they are sufficiently diluted and buffered as to both be completely soluble.

SMILES: O=C(CCNc1c2ccccc2nc2ccccc12)OCCN(CCCl)CCCl [PIC-1]
- solubility when formulated together with neutralized glutathione: precipitated out of solution
